Laboratory results reported in publication PMC5041076, “Ilex kaushue and Its Bioactive Component 3,5-Dicaffeoylquinic Acid Protected Mice from Lipopolysaccharide-Induced Acute Lung Injury” (Scientific Reports, 2016).
Entries after “also recorded” stand apart in the source; their conditions may differ. Read-outs that look alike come from different tables or passages of the source.

What was measured:
[1] = tested on: LPS-induced ALI in mice; assay: LPS-induced ALI in mice; type: in vivo, mouse
Procedure: Mice were randomly divided into nine groups (n = 6 per group): (1) Vehicle, (2) IKWE (500 mg/kg), (3) 3,5-DCQA (50 mg/kg), (4) LPS, (5) LPS + DEX (10 mg/kg), (6) LPS + IKWE (250 mg/kg), (7) LPS + IKWE (500 mg/kg), (8) LPS + 3,5-DCQA (25 mg/kg) and (9) LPS + 3,5-DCQA (50 mg/kg). Agents were dissolved in vehicle solution (PBS containing 10% Tween-80). All animals were pretreated intraperitoneally with 100 μL vehicle solution or agents, respectively, 1 h before PBS or LPS (Sigma, Escherichia coli. 055:B5) intratracheal injection (5 mg/kg in 50 μL of PBS)[26],[27]. Mice were sacrificed at 6 h post-dosage and the left lung collected for histological examination or MPO activity measurement. Lung tissue was fixed with 10% formalin before embedding with paraffin wax and routine H&E staining. MPO activity was measured as described earlier. The right lobes were prepared for W/D weight ratio determination or BALF analysis. To obtain the W/D weight ratio, wet tissues were weighed immediately after collection, dried in the oven at 80 °C for 48 h and re-weighed. For post-treatment experiments, mice treated with vehicle or 3,5-DCQA (50 mg/kg) intraperitoneally 1 h after LPS treatment.
Mice were sacrificed and hilum of the left lung sealed. BALF was collected following injection with 0.2, 0.2, 0.3, 0.3 or 0.5 mL PBS. BALF samples were combined and centrifuged at 1,000 rpm for 15 min at 4 °C. Total proteins in the supernatant fraction were determined using the protein assay dye (BIO-RAD, 500-0006) with BSA as the reference and TNF-α and IL-6 levels measured with ELISA kits (eBioscience, 88-7324-88 and 88-7064-88). Cell pellets from BALF were resuspended in 100 μL PBS and cytospun (200 g, 3 min) onto a glass microscope slide, followed by staining with Liu’s stain. Neutrophils were counted under a light microscope in five randomly selected fields (×200 magnification)[60].

[2] = biological target: T1, Human neutrophil elastase (Homo sapiens, UniProt P08246); assay: Serine protease enzyme inhibition assay, HNE; type: biochemical; conditions: for Inh % (HNE inhibition): at 30 M (so in the source), Table S3; for IC50: enzyme assay, mean ± S.E.M. (n ≥ 3), read-out: IC50 HNE
T1 construct: purchased Enzo BML-SE284
T1 sequence (P08246 30-267): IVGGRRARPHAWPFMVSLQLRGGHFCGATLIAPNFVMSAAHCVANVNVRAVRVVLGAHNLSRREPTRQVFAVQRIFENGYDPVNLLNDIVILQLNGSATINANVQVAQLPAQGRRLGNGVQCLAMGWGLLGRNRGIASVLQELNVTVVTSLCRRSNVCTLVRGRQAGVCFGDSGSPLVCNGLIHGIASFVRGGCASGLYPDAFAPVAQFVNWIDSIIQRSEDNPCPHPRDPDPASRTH

[3] = tested on: fMLF/CB-activated neutrophils; assay: Elastase release in fMLF/CB-activated neutrophils; type: cell-based; conditions: read-out: IC50 HNE (NE activity / elastase release)
Procedure: (§1) All assays were performed as described previously[58],[59]. Neutrophils isolated from the blood of healthy volunteers (20–30 years old) were resuspended in a Ca^2+-free HBSS buffer (pH 7.4) at 4 °C before use. O2^.− generation was measured based on reduction of ferricytochrome c. In brief, after supplementation with 0.5 mg/ml ferricytochrome c and 1 mM Ca^2+, neutrophils were equilibrated at 37 °C for 2 min and incubated with the specified drugs for 5 min. Neutrophils were activated using 30 nM fMLF or 100 nM LTB4 for 10 min after addition of cytochalasin B (CB, 1 μg/mL) for 3 min. Changes in absorbance concomitant with reduction of ferricytochrome c at 550 nm were continuously monitored. For elastase release, neutrophils (6 × 10^5 cells/mL) were mixed with methoxysuccinyl-Ala-Ala-Pro-Val-pNA (100 μM) substrate at 37 °C for 5 min. […] Inhibition of superoxide generation and elastase release were calculated in keeping with previous reports.

[4] = tested on: LTB4-induced human neutrophils; assay: Elastase release in LTB4-induced neutrophils; type: cell-based; conditions: Neutrophil, inducer LTB4, Table S2
Procedure: as §1

[5] = tested on: LPS-stimulated RAW 264.7 cells; set-up: method as in PMID 25975516; conditions: LPS-stimulated RAW 264.7 cells ref 45; cited from earlier work
[6] = tested on: Src family kinases; assay: Immunoblotting of Src family kinase phosphorylation in fMLF-activated neutrophils; type: cell-based, human; conditions: 10 μM, 5 min before fMLF (0.1 μM) 0.5 min, Western blot; listed as 3,5-DCQA
Procedure: (§2) Neutrophils were pretreated with DMSO or 3,5-DCQA (10 μM) for 5 min before fMLF stimulation for 0.5 min at 37 °C. Cells were lysed with lysis buffer consisting of 50 mM HEPES (pH 7.4), 100 mM NaCl, 1 mM Ca^2+, 2 mM Na3VO4, 1 mM phenylmethanesulfonyl fluoride, 5% b-mercaptoethanol, 10 mM p-nitrophenyl phosphate, 1% protease inhibitor cocktail (Sigma-Aldrich) and 1% Triton X-100. Cell lysates were collected by centrifugation at 14,000 rpm for 20 min at 4 °C. After gel electrophoresis and transferring to membranes, samples were blocked with 5% nonfat milk in a mixture of Tris-buffer saline and Tween 20. Target protein was identified by the corresponding primary antibody overnight at 4 °C. Membranes were incubated with horseradish peroxidase-conjugated, secondary anti-rabbit or anti-mouse antibodies at room temperature for 1 h. After washing, enhanced chemiluminescence solution was used and protein expression was analyzed by the BioSpectrum Imaging System (UVP, Upland, CA). The quantitative ratio of target protein was normalized to total protein or GAPDH.

[7] = tested on: Vav; assay: Immunoblotting of Vav phosphorylation in fMLF-activated neutrophils; type: cell-based, human; conditions: 10 μM, 5 min before fMLF (0.1 μM) 0.5 min, Western blot; listed as 3,5-DCQA
Procedure: as §2

[8] = tested on: Akt; assay: Immunoblotting of Akt phosphorylation in fMLF-activated neutrophils; type: cell-based, human; conditions: 10 μM, 5 min before fMLF (0.1 μM) 0.5 min, Western blot; listed as 3,5-DCQA
Procedure: as §2

[9] = biological target: Human thrombin (Homo sapiens, UniProt P00734); assay: Serine protease enzyme inhibition assay, thrombin
[10] = biological target: T2, Human proteinase 3 (Homo sapiens, UniProt P24158); assay: Serine protease enzyme inhibition assay, proteinase 3; type: biochemical; conditions: mean ± S.E.M. (n ≥ 3)
T2 construct: purchased Merk 539483
T2 sequence (P24158 28-256): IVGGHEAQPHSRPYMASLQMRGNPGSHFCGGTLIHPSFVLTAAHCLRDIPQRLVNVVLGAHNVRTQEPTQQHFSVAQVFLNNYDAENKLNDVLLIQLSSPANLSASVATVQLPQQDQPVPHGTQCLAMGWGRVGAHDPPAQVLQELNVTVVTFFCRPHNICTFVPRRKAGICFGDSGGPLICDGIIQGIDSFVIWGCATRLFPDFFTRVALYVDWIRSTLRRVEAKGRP

[11] = after intravenous administration ref 46, 47, 49; cited from earlier work
[12] = biological target: T3, Bovine chymotrypsin (Bos taurus, UniProt P00766); assay: Serine protease enzyme inhibition assay, chymotrypsin; type: biochemical; conditions: mean ± S.E.M. (n ≥ 3)
T3 construct: purchased Sigma-Aldrich C4129

[13] = tested on: fMLF/CB-activated neutrophils; assay: O2.- generation in fMLF/CB-activated neutrophils (ferricytochrome c reduction); type: cell-based, human; conditions: fMLF/CB-activated human neutrophils
Procedure: as §1

[14] = tested on: human neutrophils; set-up: method as in PMID 12384183; conditions: 100 μM, human neutrophils ref 35; cited from earlier work
[15] = biological target: T4, Human cathepsin G (Homo sapiens, UniProt P08311); assay: Serine protease enzyme inhibition assay, cathepsin G; type: biochemical; conditions: mean ± S.E.M. (n ≥ 3)
T4 construct: purchased Enzo BML-SE283
T4 sequence (P08311 21-255): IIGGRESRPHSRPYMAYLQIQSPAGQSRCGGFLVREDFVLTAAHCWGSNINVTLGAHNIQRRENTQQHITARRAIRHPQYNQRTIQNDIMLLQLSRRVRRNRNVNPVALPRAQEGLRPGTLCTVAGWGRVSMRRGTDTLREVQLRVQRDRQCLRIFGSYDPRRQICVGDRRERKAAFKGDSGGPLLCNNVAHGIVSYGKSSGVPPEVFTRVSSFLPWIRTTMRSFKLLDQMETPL

[16] = pretreatment i.p. 1 h before LPS, 6 h
[17] = fMLF/CB-activated human neutrophils
[18] = read-out: IC50 Thrombin, enzyme assay, mean ± S.E.M. (n ≥ 3)

| Compound | Inh % (HNE inhibition) [2] [%] | IC50 [2] [µM] | IC50 [3, 17] [µM] | IC50 [10] [µM] | IC50 [12] [µM] | IC50 [15] [µM] | IC50 [9, 18] [µM] | IC50 [13] [µM] | further results |
| --- | --- | --- | --- | --- | --- | --- | --- | --- | --- |
| O=C(C=Cc1ccc(O)c(O)c1)OC1CC(O)(C(=O)O)CC(OC(=O)C=Cc2ccc(O)c(O)c2)C1O (stereo not shown) [Compound 6, 3,5-dicaffeoylquinic acid] | 90.53 ± 0.52 | 1.86 ± 0.06 | > 10 | > 30 | > 30 | > 30 | – | – | pathological features of ALI, post-treatment ([1]; 50 mg/kg i.p. 1 h after LPS): significantly improved; levels of proinflammatory cytokines (TNF-α and IL-6) in BALF [1, 16]: Reduced levels; lung edema (W/D weight ratio) [1, 16]: improve lung edema; accumulation / infiltration of neutrophils in lung tissue (MPO activity, BALF, histology) ([1]; pretreatment i.p. 1 h before LPS, 6 h, listed as 3,5-DCQA): suppress accumulation of neutrophils; also recorded: significantly reduced; pathological features of ALI (hemorrhage, infiltrating neutrophils, thickening of alveolar wall) ([1]; pretreatment i.p. 1 h before LPS, IKWE 500 mg/kg, 3,5-DCQA 50 mg/kg): significantly improved; selectivity of inhibitory effect among serine proteases ([2]; five serine proteases examined): high selectivity for HNE; IC50 ([3]; Homo sapiens, Neutrophil): 12 ± 0.6 µM; IC50 [4]: 2.9 ± 0.55 µM; TNF-α and IL-6 expression [5]: able to reduce; phosphorylation of SFKs [6]: reduce phosphorylation; also recorded: inhibited the phosphorylation; phosphorylation of Vav [7]: reduce phosphorylation; also recorded: inhibited the phosphorylation; phosphorylation of Akt [8]: did not inhibited the phosphorylation; IC50 [9]: > 30 µM; time detectable in the plasma [11]: 4 h; IC50 ([13]; Neutrophil): 1.92 ± 0.54 µM; elastase release, myeloperoxidase activity and superoxide production [14]: able to inhibit |
| O=C(/C=C/c1ccc(O)c(O)c1)O[C@H]1[C@H](O)C[C@](O)(C(=O)O)C[C@H]1OC(=O)/C=C/c1ccc(O)c(O)c1 [Compound 7, 4,5-DCQA] | 36.42 ± 2.25 | > 30 | > 10 | > 30 | > 30 | > 30 | > 30 | 1.49 ± 0.38 | – |
| O=C(/C=C/c1ccc(O)c(O)c1)O[C@H]1[C@H](O)C[C@](O)(C(=O)O)C[C@H]1OC(=O)/C=C/c1ccc(O)c(O)c1 [Compound 4, 3,4-DCQA] | 9.91 ± 0.99 | > 30 | > 10 | > 30 | > 30 | > 30 | > 30 | 1.7 ± 0.28 | – |

More lines, main results first:

| Inh % (HNE inhibition) [2] [%] | IC50 [2] [µM] | IC50 [3, 17] [µM] | IC50 [10] [µM] | IC50 [12] [µM] | IC50 [15] [µM] | IC50 [9, 18] [µM] | IC50 [13] [µM] | Compound | further results |
| --- | --- | --- | --- | --- | --- | --- | --- | --- | --- |
| – | > 30 | 7.99 ± 1.18 | > 30 | > 30 | > 30 | > 30 | > 10 | C[C@@H]1O[C@@H](O[C@H]2[C@H](OC(=O)[C@]34CC[C@@H](C)[C@@](C)(O)[C@H]3C3=CC[C@@H]5[C@@]6(C)CC[C@H](O[C@@H]7OC[C@H](O)[C@H](O[C@@H]8O[C@H](CO)[C@@H](O)[C@H](O)[C@H]8O)[C@H]7O[C@@H]7O[C@@H](C)[C@H](O)[C@@H](O)[C@H]7O)C(C)(C)[C@@H]6CC[C@@]5(C)[C@]3(C)CC4)O[C@H](CO)[C@@H](O)[C@@H]2O)[C@H](O)[C@H](O)[C@H]1O [Compound 15] | – |
| – | > 30 | > 10 | > 30 | > 30 | > 30 | > 30 | > 10 | C[C@@H]1O[C@@H](O[C@H]2[C@H](O[C@H]3CC[C@]4(C)[C@H]5C=CC6=C7[C@]8(CC[C@](C)(OC8=O)[C@@]7(C)O)CC[C@@]6(C)[C@]5(C)CC[C@H]4C3(C)C)OC[C@H](O)[C@@H]2O[C@@H]2O[C@H](CO)[C@@H](O)[C@H](O)[C@H]2O)[C@H](O)[C@H](O)[C@H]1O [Compound 11] | – |
